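Assay format: 96-well plates, 48-hour exposure. GI50 = concentration required for 50% inhibition of growth. At the TGI there is no net growth.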
Legend:
Experiment in all cases: growth of human tumour cells (NCI), 48 h
UACC-62 melanoma = system: UACC-62 melanoma
UO-31 renal = system: UO-31 renal
PC-3 prostate = system: PC-3 prostate
HCT-15 colon = system: HCT-15 colon
T-47D breast = system: T-47D breast
HOP-62 NSCLC = system: HOP-62 NSCLC
786-0 renal = system: 786-0 renal
OVCAR-3 ovarian = system: OVCAR-3 ovarian
COLO 205 colon = system: COLO 205 colon
NCI-H522 lung = system: NCI-H522 lung
MDA-MB-435 = system: MDA-MB-435
MCF7 breast = system: MCF7 breast
NCI-H226 lung = system: NCI-H226 lung
SW-620 colon = system: SW-620 colon
SNB-19 CNS = system: SNB-19 CNS
HL-60(TB) leukemia = system: HL-60(TB) leukemia
SK-OV-3 ovarian = system: SK-OV-3 ovarian
U251 CNS = system: U251 CNS
SK-MEL-28 melanoma = system: SK-MEL-28 melanoma
SK-MEL-5 melanoma = system: SK-MEL-5 melanoma
NCI-H460 lung = system: NCI-H460 lung
NCI-H23 lung = system: NCI-H23 lung
SN12C renal = system: SN12C renal
M14 melanoma = system: M14 melanoma
DU-145 prostate = system: DU-145 prostate
SF-268 CNS = system: SF-268 CNS
BT-549 breast = system: BT-549 breast
HT29 colon = system: HT29 colon
HOP-92 NSCLC = system: HOP-92 NSCLC
OVCAR-4 ovarian = system: OVCAR-4 ovarian
NCI/ADR-RES ovarian = system: NCI/ADR-RES ovarian
IGROV1 ovarian = system: IGROV1 ovarian
SK-MEL-2 melanoma = system: SK-MEL-2 melanoma
SNB-75 CNS = system: SNB-75 CNS
MOLT-4 leukemia = system: MOLT-4 leukemia
ACHN renal = system: ACHN renal
UACC-257 melanoma = system: UACC-257 melanoma
TK-10 renal = system: TK-10 renal
SF-539 CNS = system: SF-539 CNS
HCT-116 colon = system: HCT-116 colon
MDA-MB-231 breast = system: MDA-MB-231 breast
A498 renal = system: A498 renal
HS 578T breast = system: HS 578T breast
KM12 colon = system: KM12 colon
MALME-3M melanoma = system: MALME-3M melanoma
OVCAR-8 ovarian = system: OVCAR-8 ovarian
HCC-2998 colon = system: HCC-2998 colon
RPMI-8226 leukemia = system: RPMI-8226 leukemia
RXF 393 renal = system: RXF 393 renal
OVCAR-5 ovarian = system: OVCAR-5 ovarian
A549 NSCLC = system: A549 NSCLC
K-562 leukemia = system: K-562 leukemia
CCRF-CEM leukemia = system: CCRF-CEM leukemia

## CCn1cc(C(=O)O)c(=O)c2cc(F)c(N3CCN(S(=O)(=O)c4cccc5ccccc45)CC3)cc21
UACC-62 melanoma
  GI50: 2.25 µM
  TGI: 7.73 µM
UO-31 renal
  GI50: 2.21 µM
  TGI: 8.95 µM
PC-3 prostate
  GI50: 2.66 µM
  TGI: > 100 µM
HCT-15 colon
  GI50: 3.15 µM
  TGI: > 100 µM
T-47D breast
  GI50: 3.35 µM
  TGI: > 100 µM
HOP-62 NSCLC
  GI50: 4.6 µM
  TGI: 39.2 µM
786-0 renal
  GI50: 4.5 µM
  TGI: 20.9 µM
OVCAR-3 ovarian
  GI50: 3.69 µM
  TGI: 15.6 µM
COLO 205 colon
  GI50: 2.02 µM
  TGI: 3.91 µM
NCI-H522 lung
  GI50: 2.78 µM
  TGI: 8.04 µM
MDA-MB-435
  GI50: 3.13 µM
  TGI: 14.5 µM
MCF7 breast
  GI50: 2.72 µM
  TGI: 9.04 µM
NCI-H226 lung
  GI50: 3.71 µM
  TGI: > 100 µM
SW-620 colon
  GI50: 3.57 µM
  TGI: > 100 µM
SNB-19 CNS
  GI50: 3.47 µM
  TGI: > 100 µM
HL-60(TB) leukemia
  GI50: 2.58 µM
  TGI: 6.41 µM
SK-OV-3 ovarian
  GI50: 3.11 µM
  TGI: 13.4 µM
U251 CNS
  GI50: 3.29 µM
  TGI: > 100 µM
SK-MEL-28 melanoma
  GI50: 6.09 µM
  TGI: > 100 µM
SK-MEL-5 melanoma
  GI50: 2.24 µM
  TGI: 5.17 µM
NCI-H460 lung
  GI50: 3.43 µM
  TGI: > 100 µM
NCI-H23 lung
  GI50: 3.13 µM
  TGI: 12.1 µM
SN12C renal
  GI50: 2.59 µM
  TGI: > 100 µM
M14 melanoma
  GI50: 4.37 µM
  TGI: > 100 µM
DU-145 prostate
  GI50: 3.97 µM
  TGI: > 100 µM
SF-268 CNS
  GI50: 4.39 µM
  TGI: > 100 µM
BT-549 breast
  GI50: 3.69 µM
  TGI: > 100 µM
HT29 colon
  GI50: 3.95 µM
  TGI: > 100 µM
HOP-92 NSCLC
  GI50: 1.25 µM
  TGI: 5.43 µM
OVCAR-4 ovarian
  GI50: 2.6 µM
  TGI: > 100 µM
NCI/ADR-RES ovarian
  GI50: 3.2 µM
  TGI: > 100 µM
IGROV1 ovarian
  GI50: 2.47 µM
  TGI: 7.49 µM
SK-MEL-2 melanoma
  GI50: 3.55 µM
  TGI: 8.72 µM
SNB-75 CNS
  GI50: 1.89 µM
  TGI: 8.49 µM
MOLT-4 leukemia
  GI50: 4.46 µM
  TGI: > 100 µM
ACHN renal
  GI50: 2.88 µM
  TGI: > 100 µM
UACC-257 melanoma
  GI50: 2.72 µM
  TGI: 7.72 µM
TK-10 renal
  GI50: 7.6 µM
  TGI: > 100 µM
SF-539 CNS
  GI50: 2.43 µM
  TGI: 8.53 µM
HCT-116 colon
  GI50: 3.88 µM
  TGI: > 100 µM
MDA-MB-231 breast
  GI50: 1.91 µM
  TGI: 4.71 µM
A498 renal
  GI50: 2.74 µM
  TGI: > 100 µM
HS 578T breast
  GI50: 2.68 µM
  TGI: 9.88 µM
KM12 colon
  GI50: 2.96 µM
  TGI: 9.2 µM
MALME-3M melanoma
  GI50: 2.83 µM
  TGI: 7.83 µM
OVCAR-8 ovarian
  GI50: 3.09 µM
  TGI: > 100 µM
HCC-2998 colon
  GI50: 4.26 µM
  TGI: 61.9 µM
RPMI-8226 leukemia
  GI50: 2.79 µM
  TGI: 9.73 µM
RXF 393 renal
  GI50: 3.19 µM
  TGI: 11.8 µM
OVCAR-5 ovarian
  GI50: 3.38 µM
  TGI: > 100 µM
A549 NSCLC
  GI50: 2.87 µM
  TGI: > 100 µM
K-562 leukemia
  GI50: 3.93 µM
  TGI: > 100 µM
CCRF-CEM leukemia
  GI50: 3.67 µM
  TGI: > 100 µM

From PubChem BioAssay (NCI)
